Experimental data published in the NIST ThermoML archive (doi:10.1021/acs.jced.6b00048).
± gives the expanded uncertainty stated by the source.

Assay: wn = mass fraction of the nth substance listed
Details: 100 kPa, Liquid, Vibrating tube method, w1 = 0.5821

Work on `[Cl-].[Cl-].[Zn+2]` [zinc chloride] + O yielded a mass density (288.15 K) of 1702.7 ± 6.9 kg/m3, a mass density (298.15 K) of 1692.5 ± 6.9 kg/m3 and a mass density (323.15 K) of 1666.6 ± 6.7 kg/m3.
